Results published in patent US7317018B2, “Anti-inflammatory medicament” (Medestea Internazionale S.p.A., priority 2000, dated 2008).

Columns and labels:
Format in all cases: in vivo
[1] = test system: rat hind paw inflamed by Freund's complete adjuvant (FCA); test: Paw pressure test (nociceptive threshold) and inflammatory signs in rat hind paw inflamed by intraplantar Freund's complete adjuvant (FCA)
Procedure: As experimental model, a unilateral inflammation in rat hind paw, after intraplantar injection of Freund's complete adjuvant (FCA), has been used. The controlateral paw of treated animals, as well as that of untreated animals, were used as controls. Inflammation induced by FCA was evidenced, from 3 h until 24-48 h following injection, by increase in paw volume, hyperthermia and hyperalgesia. The latter was evaluated by an algesyometric test (paw pressure test) capable of evaluating the nociceptive threshold. […] Different doses of oATP always induced a significant, dose-dependent analgesic effect, lasting approximately 12-24 hours, with an effect peak already one hour after the administration.
(§1) Male Fischer inbred rats (Charles River Italy, Calco, Lecco, Italy) weighing about 250 g were used. Rats, under brief isoflurane anaesthesia received an intraplantar injection of Freund's complete adjuvant (FCA) (0.15 ml) into the right hind paw. This injection induced a unilateral inflammation (from 3 h until 24-48 h following injection) evidenced by increase in paw volume, hyperthermia and hyperalgesia. Hyperalgesia was assessed by an algesyometric test, using an analgesyometer (Ugo Basile, Comerio, Italy) to determine the paw pressure threshold, expressed in grams, namely the pressure required to elicit paw withdrawal, which indicates the nociceptive threshold value. 6 to 8 rats were used for each test. During these trials, animals were treated according to the “standard ethical guidelines” (NIH, 1985).
Rat inflamed paw received, 24 hrs after FCA injection, intraplantar injection of different doses of oATP (56 to 336 μM), considering time 0 the moment of oATP injection.
The effect of the maximal oATP dose used was tested in a further set of experiments, for more prolonged times, on rat paws in which the inflammatory process had been induced 48 hrs before (table 2). […]

noninflamed rat paws = test: Paw pressure test (nociceptive threshold) in noninflamed rat paws
Procedure: as §1
Dose/effect curves in noninflamed paws were in fact superimposable (until 120′ after oATP administration) using different concentrations of the molecule. In order to ascertain whether oATP analgesic effect was somewhat related to the activation of inflammatory cells able to produce endogenous β-endorphins, some rats were intravenously injected with fucoidin (10 mg/kg). Fucoidin in fact inhibits leukocyte diapedesis and their accumulation at the inflammation site. Pre-treatment with fucoidin was carried out in both paws, 30′ before FCA injection in one of the rat paws. Pain pressure threshold (PPT) was measured in both noninflamed and inflamed paws, before and after oATP injection (224 μm).

[2] = test system: ATP content in paw subcutaneous tissue; test: ATP content of rat paw subcutaneous tissue, luminescence method; details: for ATP levels: 6 and 12 h following intraplantar oATP (35 μM), FIG. 3
Procedure: ATP content was assessed in oATP treated rat paws and controlateral untreated ones. Paw subcutaneous tissues were removed from both inflamed and noninflamed paws and rapidly frozen in liquid nitrogen. The frozen tissue samples were weighed, homogenised in phosphate buffer, then treated with K2CO3 and neutralised, finally centrifuged. The supernatant was used for ATP assay, following the luminescence method. We determined in a separate group of rats the modifications in ATP content induced in the plantar tissue by the inflammatory process and/or by oATP treatment. At established times, paw subcutaneous tissues were removed and rapidly frozen in liquid nitrogen, with the aim of blocking any metabolic activity. The frozen tissue was homogenized with a polytron (Kinematica GmbH, Luzern, Switzerland) in ice-cold 6% (w/v) HClO4 to extract nucleotides. The homogenate was centrifuged and the supernatant was used for ATP determination, following the procedure previously described (Marni et al., Transplantation (1988), 46: 830-835). ATP assay was performed by luminescence method (Ferrero et al., Res Commun Chem Path Pharmac 1984; 45: 55-67). We measured ATP levels, in inflamed (by 24 h FCA treatment) and noninflamed paws treated with oATP, at 6 and 12 h following oATP administration, and in controlateral untreated paws. […] ATP content, at 6 and 12 h following intraplantar oATP (35 μM) injection in rat paws: inflamed (by 24 FCA administration) (filled bars), inflamed-oATP treated (hatched bars), noninflamed (open bars), noninflamed-oATP-treated (horizontal line bars). *p<0.005 compared with inflamed untreated paws, Wilcoxon test. Data are expressed as means±S.E.M. of 7 experiments.

Compound: Nc1ncnc2c1ncn2[C@@H]1O[C@H](COP(=O)(O)OP(=O)(O)OP(=O)(O)O)[C@@H](O)[C@H]1O [ATP, reference compound]
- nociceptive threshold ([1]; inflamed paws, after intraplantar injection of ATP (0.9 mmoles)): 50±4.1
- nociceptive threshold ([1]; inflamed paws, before intraplantar injection of ATP (0.9 mmoles)): 65±4.2
- nociceptive threshold (noninflamed rat paws; 240′ after intraplantar injection of ATP (0.9 mmoles)): 25±3.0
- nociceptive threshold (noninflamed rat paws; before intraplantar injection of ATP (0.9 mmoles)): 120±3.2

Compound: Nc1ncnc2c1ncn2[C@@H](C=O)O[C@@H](C=O)COP(=O)(O)OP(=O)(O)OP(=O)(O)O [oATP, adenosine-5′-triphosphate-2′,3′-dialdehyde]
- pain pressure threshold (PPT) ([1]; inflamed paws, fucoidin 10 mg/kg i.v. pre-treatment 30′ before FCA, oATP injection 224 μm, FIG. 1): restored PPT levels
- duration of analgesic effect ([1]; intraplantar injection, different doses of oATP): 12 to 24 h
- dose dependence of analgesic effect ([1]; intraplantar oATP 56 to 336 μM): dose-dependent effect
- analgesic efficacy compared with diclofenac ([1]; local treatment 3 hours after FCA, oATP 336 μM vs diclofenac 15 mg, FIG. 2): significantly higher than that of diclofenac
- nociceptive threshold or paw pressure threshold ([1]; oATP 56 μM intraplantar, 24 hrs after FCA, inflamed paw, 30′): 120 ± 2.1 g
- nociceptive threshold or paw pressure threshold ([1]; oATP 56 μM intraplantar, 24 hrs after FCA, inflamed paw, 60′): 190 ± 2.3 g
- nociceptive threshold or paw pressure threshold ([1]; oATP 56 μM intraplantar, 24 hrs after FCA, inflamed paw, 90′): 85 ± 2.5 g
- nociceptive threshold or paw pressure threshold ([1]; oATP 56 μM intraplantar, 24 hrs after FCA, inflamed paw, 120′): 75 ± 1.8 g
- nociceptive threshold or paw pressure threshold ([1]; oATP 56 μM intraplantar, 24 hrs after FCA, inflamed paw, 240′): 75 ± 2.6 g
- nociceptive threshold or paw pressure threshold ([1]; oATP 56 μM intraplantar, 24 hrs after FCA, inflamed paw, time 0′ (untreated inflamed paw, baseline)): 60 ± 1.6 g
- nociceptive threshold or paw pressure threshold ([1]; oATP 112 μM intraplantar, 24 hrs after FCA, inflamed paw, 30′): 140 ± 3.5 g
- nociceptive threshold or paw pressure threshold ([1]; oATP 112 μM intraplantar, 24 hrs after FCA, inflamed paw, 60′): 180 ± 4.2 g
- nociceptive threshold or paw pressure threshold ([1]; oATP 112 μM intraplantar, 24 hrs after FCA, inflamed paw, 90′): 150 ± 3.8 g
- nociceptive threshold or paw pressure threshold ([1]; oATP 112 μM intraplantar, 24 hrs after FCA, inflamed paw, 120′): 100 ± 3.0 g
- nociceptive threshold or paw pressure threshold ([1]; oATP 112 μM intraplantar, 24 hrs after FCA, inflamed paw, 240′): 105 ± 4.3 g
- nociceptive threshold or paw pressure threshold ([1]; oATP 112 μM intraplantar, 24 hrs after FCA, inflamed paw, time 0′ (untreated inflamed paw, baseline)): 65 ± 2.0 g
- nociceptive threshold or paw pressure threshold ([1]; oATP 224 μM intraplantar, 24 hrs after FCA, inflamed paw, 30′): 350 ± 54 g
- nociceptive threshold or paw pressure threshold ([1]; oATP 224 μM intraplantar, 24 hrs after FCA, inflamed paw, 60′): 400 ± 10.3 g
- nociceptive threshold or paw pressure threshold ([1]; oATP 224 μM intraplantar, 24 hrs after FCA, inflamed paw, 90′): 300 ± 11.2 g
- nociceptive threshold or paw pressure threshold ([1]; oATP 224 μM intraplantar, 24 hrs after FCA, inflamed paw, 120′): 185 ± 7.1 g
- nociceptive threshold or paw pressure threshold ([1]; oATP 224 μM intraplantar, 24 hrs after FCA, inflamed paw, 240′): 180 ± 8.9 g
- nociceptive threshold or paw pressure threshold ([1]; oATP 224 μM intraplantar, 24 hrs after FCA, inflamed paw, time 0′ (untreated inflamed paw, baseline)): 50 ± 1.5 g
- nociceptive threshold or paw pressure threshold ([1]; oATP 336 μM intraplantar, 24 hrs after FCA, inflamed paw, 30′): 300 ± 3.4 g
- nociceptive threshold or paw pressure threshold ([1]; oATP 336 μM intraplantar, 24 hrs after FCA, inflamed paw, 60′, 750 = cut off): => 750 *1 g
- nociceptive threshold or paw pressure threshold ([1]; oATP 336 μM intraplantar, 24 hrs after FCA, inflamed paw, 90′, 750 = cut off): => 750 *2 g
- nociceptive threshold or paw pressure threshold ([1]; oATP 336 μM intraplantar, 24 hrs after FCA, inflamed paw, 120′): 600 ± 20.8 g
- nociceptive threshold or paw pressure threshold ([1]; oATP 336 μM intraplantar, 24 hrs after FCA, inflamed paw, 240′): 550 ± 18.4 g
- nociceptive threshold or paw pressure threshold ([1]; oATP 336 μM intraplantar, 24 hrs after FCA, inflamed paw, time 0′ (untreated inflamed paw, baseline)): 60 ± 1.9 g
- nociceptive threshold or paw pressure threshold ([1]; oATP 336 μM, inflammatory process induced 48 hrs before, 30′): 210 ± 10.7 g
- nociceptive threshold or paw pressure threshold ([1]; oATP 336 μM, inflammatory process induced 48 hrs before, 60′): 360 ± 25.8 g
- nociceptive threshold or paw pressure threshold ([1]; oATP 336 μM, inflammatory process induced 48 hrs before, 90′): 395 ± 30.2 g
- nociceptive threshold or paw pressure threshold ([1]; oATP 336 μM, inflammatory process induced 48 hrs before, 120′): 450 ± 38.1 g
- nociceptive threshold or paw pressure threshold ([1]; oATP 336 μM, inflammatory process induced 48 hrs before, 180′): 550 ± 45.9 g
- nociceptive threshold or paw pressure threshold ([1]; oATP 336 μM, inflammatory process induced 48 hrs before, 240′): 690 ± 56.6 g
- nociceptive threshold or paw pressure threshold ([1]; oATP 336 μM, inflammatory process induced 48 hrs before, 12 hours): 400 ± 29.7 g
- nociceptive threshold or paw pressure threshold ([1]; oATP 336 μM, inflammatory process induced 48 hrs before, 24 hours): 210 ± 7.2 g
- nociceptive threshold or paw pressure threshold ([1]; oATP 336 μM, inflammatory process induced 48 hrs before, 26 hours): 190 ± 3.3 g
- nociceptive threshold or paw pressure threshold ([1]; oATP 336 μM, inflammatory process induced 48 hrs before, time 0′ (baseline)): 55 ± 2.0 g
- inflammatory signs (swelling, hyperthermia) ([1]; oATP treated paws compared with untreated paws): reduction of inflammatory signs
- effect on nociceptive threshold (noninflamed rat paws; already at the lowest oATP concentration (56 μM), dose/effect curves superimposable until 120′): effective in increasing nociceptive threshold, for a short time
- pain pressure threshold (PPT) (noninflamed rat paws; fucoidin 10 mg/kg i.v. pre-treatment, oATP injection 224 μm, FIG. 1): did not significantly change PPT values
- ATP levels ([2]; inflamed tissues (24 h FCA), p<0.005 vs inflamed untreated paws): significantly reduced
- ATP levels ([2]; noninflamed tissues): did not significantly change ATP levels
- ATP content of paw homogenate ([2]; oATP treated paws, untreated 1050±90, mean±S.E.M. of 7 experiments): 320±22 nmoles/g fresh tissue
